Experimental data taken from patent US20090068290A1, “BIFEPRUNOX DOSES FOR TREATING SCHIZOPHRENIA” (priority 2006, published 2009).

Legend:
Type in all cases: in vivo, human
[1] = test system: adult subjects with schizophrenia; test: PANSS general psychopathology subscale score, Clinical Study One; conditions: for Change from Baseline in PANSS General Psychopathology Subscale Score, Mean (S.D.) / Change from Baseline in PANSS General Psychopathology Subscale Score, Median / Trt Effect (versus placebo), PANSS General Psychopathology Subscale Score: ITT population; for Trt Effect (versus placebo), PANSS General Psychopathology Subscale Score: ANCOVA
Description: (§1) There were five treatment groups in this study. […] Study medication was administered once daily. After Baseline measurements were performed, the titration phase was begun. Bifeprunox treated subjects were titrated up to 5 mg, 10 mg or 20 mg according to a standardized titration schedule (Day 1: 0.125 mg, Day 2: 0.25 mg, Day 3: 0.5 mg, Day 4: 1.0 mg, Day 5: 2.0 mg, Day 6: 5.0 mg, Day 7: 10.0 mg, Day 8: 20 mg). When the assigned dose was reached, subjects were maintained at that dose for the remainder of the six-week treatment period.
(§2) The change in the Positive and Negative Symptom Scale (PANSS) total score, from baseline to endpoint, was the primary outcome measure. Secondary efficacy measures included: PANSS positive, PANSS negative, PANSS general psychopathology (GPP) score, PANSS-derived Brief Psychiatric Rating Scale (BPRS) score, Clinical Global Impressions-Severity of Illness (CGI-S), CGI-Improvement (CGI-I) scores, and responder rates. Safety and tolerability evaluations included extrapyramidal symptoms (EPS), weight gain, lipid profile, and serum prolactin.

[2] = test system: adult subjects with schizophrenia; test: CGI Improvement score, Clinical Study One; design: Actual Value of CGI Improvement Score, Median / CGI Improvement Score, Trt Effect: scale not given here
Description: as §1, §2

[3] = test system: adult subjects with schizophrenia; test: BPRS total score, Clinical Study Two; conditions: LOCF, ITT population
Description: Rating scale assessments were performed weekly, except for week 5, to measure the change from baseline to endpoint of the PANSS total score. Other assessments included: PANSS positive symptom subscale score, PANSS negative symptom subscale score, PANSS general pschopathology subscale score, BPRS total score, BPRS psychosis score, the CGI-S score, the CGI-I score, responder rates based on the PANSS total score, and the Calgary Depression Scale for Schizophrenia (CDSS). […]
Subjects who completed this study had the option to continue in the long-term. […] Blood samples were also obtained at Screening/Baseline, Week 3, and Week 6 for clinical laboratory assessments.

[4] = Bifeprunox 10 mg, Endpoint LOCF
[5] = Bifeprunox 20 mg, Endpoint LOCF
[6] = Bifeprunox 30 mg, Week 6/Endpoint
[7] = Bifeprunox 40 mg, Week 6/Endpoint

## O=c1[nH]c2cccc(N3CCN(Cc4cccc(-c5ccccc5)c4)CC3)c2o1 [Bifeprunox, 7-[4-([1,1′-biphenyl]-3-ylmethyl)-1-piperazinyl]-2(3H)-benzoxazolone]
[1]; Bifeprunox 5 mg, Endpoint LOCF
  Change from Baseline in PANSS General Psychopathology Subscale Score, Mean (S.D.): −4.4 (9.4)
  Change from Baseline in PANSS General Psychopathology Subscale Score, Median: −5
  Trt Effect (versus placebo), PANSS General Psychopathology Subscale Score: −2.2
[1]; Bifeprunox 5 mg, Week 1, LOCF
  Change from Baseline in PANSS General Psychopathology Subscale Score, Mean (S.D.): −1.7 (7.6)
  Change from Baseline in PANSS General Psychopathology Subscale Score, Median: −2
[1]; Bifeprunox 5 mg, Week 2, LOCF
  Change from Baseline in PANSS General Psychopathology Subscale Score, Mean (S.D.): −2.8 (8.1)
  Change from Baseline in PANSS General Psychopathology Subscale Score, Median: −2
[1]; Bifeprunox 5 mg, Week 3, LOCF
  Change from Baseline in PANSS General Psychopathology Subscale Score, Mean (S.D.): −3.3 (8.8)
  Change from Baseline in PANSS General Psychopathology Subscale Score, Median: −3
[1]; Bifeprunox 5 mg, Week 4, LOCF
  Change from Baseline in PANSS General Psychopathology Subscale Score, Mean (S.D.): −3.7 (9.1)
  Change from Baseline in PANSS General Psychopathology Subscale Score, Median: −4
[1]; [4]
  Change from Baseline in PANSS General Psychopathology Subscale Score, Mean (S.D.): −2.0 (9.2)
  Change from Baseline in PANSS General Psychopathology Subscale Score, Median: −1
  Trt Effect (versus placebo), PANSS General Psychopathology Subscale Score: 0.4
[1]; Bifeprunox 10 mg, Week 1, LOCF
  Change from Baseline in PANSS General Psychopathology Subscale Score, Mean (S.D.): −0.9 (6.2)
  Change from Baseline in PANSS General Psychopathology Subscale Score, Median: 0
[1]; Bifeprunox 10 mg, Week 2, LOCF
  Change from Baseline in PANSS General Psychopathology Subscale Score, Mean (S.D.): −1.5 (7.7)
  Change from Baseline in PANSS General Psychopathology Subscale Score, Median: −2
[1]; Bifeprunox 10 mg, Week 3, LOCF
  Change from Baseline in PANSS General Psychopathology Subscale Score, Mean (S.D.): −1.7 (9.0)
  Change from Baseline in PANSS General Psychopathology Subscale Score, Median: −1
[1]; Bifeprunox 10 mg, Week 4, LOCF
  Change from Baseline in PANSS General Psychopathology Subscale Score, Mean (S.D.): −1.4 (8.8)
  Change from Baseline in PANSS General Psychopathology Subscale Score, Median: −1
[1]; [5]
  Change from Baseline in PANSS General Psychopathology Subscale Score, Mean (S.D.): −5.1 (8.8)
  Change from Baseline in PANSS General Psychopathology Subscale Score, Median: −5
  Trt Effect (versus placebo), PANSS General Psychopathology Subscale Score: −2.8
[1]; Bifeprunox 20 mg, Week 1, LOCF
  Change from Baseline in PANSS General Psychopathology Subscale Score, Mean (S.D.): −3.0 (6.4)
  Change from Baseline in PANSS General Psychopathology Subscale Score, Median: −2
[1]; Bifeprunox 20 mg, Week 2, LOCF
  Change from Baseline in PANSS General Psychopathology Subscale Score, Mean (S.D.): −4.4 (7.5)
  Change from Baseline in PANSS General Psychopathology Subscale Score, Median: −5
[1]; Bifeprunox 20 mg, Week 3, LOCF
  Change from Baseline in PANSS General Psychopathology Subscale Score, Mean (S.D.): −5.2 (7.9)
  Change from Baseline in PANSS General Psychopathology Subscale Score, Median: −6
[1]; Bifeprunox 20 mg, Week 4, LOCF
  Change from Baseline in PANSS General Psychopathology Subscale Score, Mean (S.D.): −5.2 (8.4)
  Change from Baseline in PANSS General Psychopathology Subscale Score, Median: −6
[1]; bifeprunox 5 mg, LOCF
  PANSS general psychopathology score, estimate of the treatment effect: −2.2
[1]; bifeprunox 10 mg, LOCF
  PANSS general psychopathology score, estimate of the treatment effect: 0.4
[1]; bifeprunox 20 mg, LOCF
  PANSS general psychopathology score, estimate of the treatment effect: −2.8
[2]; 5 mg versus placebo, Endpoint LOCF
  CGI Improvement Score, Trt Effect: −0.28
[2]; 5 mg, Endpoint LOCF
  Actual Value of CGI Improvement Score, Mean (S.D.): 3.33 (1.37)
  Actual Value of CGI Improvement Score, Median: 3.0
[2]; 5 mg, Week 1, LOCF
  Actual Value of CGI Improvement Score, Mean (S.D.): 3.76 (0.85)
  Actual Value of CGI Improvement Score, Median: 4.0
[2]; 5 mg, Week 2, LOCF
  Actual Value of CGI Improvement Score, Mean (S.D.): 3.46 (1.10)
  Actual Value of CGI Improvement Score, Median: 3.0
[2]; 5 mg, Week 3, LOCF
  Actual Value of CGI Improvement Score, Mean (S.D.): 3.2 (1.27)
  Actual Value of CGI Improvement Score, Median: 3.0
[2]; 5 mg, Week 4, LOCF
  Actual Value of CGI Improvement Score, Mean (S.D.): 3.37 (1.35)
  Actual Value of CGI Improvement Score, Median: 3.0
[2]; 10 mg versus placebo, Endpoint LOCF
  CGI Improvement Score, Trt Effect: 0.28
[2]; 10 mg, Endpoint LOCF
  Actual Value of CGI Improvement Score, Mean (S.D.): 3.90 (1.39)
  Actual Value of CGI Improvement Score, Median: 4.0
[2]; 10 mg, Week 1, LOCF
  Actual Value of CGI Improvement Score, Mean (S.D.): 3.88 (1.00)
  Actual Value of CGI Improvement Score, Median: 4.0
[2]; 10 mg, Week 2, LOCF
  Actual Value of CGI Improvement Score, Mean (S.D.): 3.71 (1.23)
  Actual Value of CGI Improvement Score, Median: 4.0
[2]; 10 mg, Week 3, LOCF
  Actual Value of CGI Improvement Score, Mean (S.D.): 3.79 (1.32)
  Actual Value of CGI Improvement Score, Median: 4.0
[2]; 10 mg, Week 4, LOCF
  Actual Value of CGI Improvement Score, Mean (S.D.): 3.86 (1.35)
  Actual Value of CGI Improvement Score, Median: 4.0
[2]; 20 mg versus placebo, Endpoint LOCF
  CGI Improvement Score, Trt Effect: −0.21
[2]; 20 mg, Endpoint LOCF
  Actual Value of CGI Improvement Score, Mean (S.D.): 342 (1.30)
  Actual Value of CGI Improvement Score, Median: 3.0
[2]; 20 mg, Week 1, LOCF
  Actual Value of CGI Improvement Score, Mean (S.D.): 3.54 (0.99)
  Actual Value of CGI Improvement Score, Median: 4.0
[2]; 20 mg, Week 2, LOCF
  Actual Value of CGI Improvement Score, Mean (S.D.): 3.30 (114)
  Actual Value of CGI Improvement Score, Median: 3.0
[2]; 20 mg, Week 3, LOCF
  Actual Value of CGI Improvement Score, Mean (S.D.): 3.31 (1.19)
  Actual Value of CGI Improvement Score, Median: 3.0
[2]; 20 mg, Week 4, LOCF
  Actual Value of CGI Improvement Score, Mean (S.D.): 3.35 (1.29)
  Actual Value of CGI Improvement Score, Median: 3.0
[3]; Bifeprunox 30 mg, Week 1
  Change from Baseline in BPRS Total Score, Mean (SD): −3.8 (7.0)
  Change from Baseline in BPRS Total Score, Median: −3
[3]; Bifeprunox 30 mg, Week 2
  Change from Baseline in BPRS Total Score, Mean (SD): −7.0 (9.5)
  Change from Baseline in BPRS Total Score, Median: −6
[3]; Bifeprunox 30 mg, Week 3
  Change from Baseline in BPRS Total Score, Mean (SD): −7.93 (10.7)
  Change from Baseline in BPRS Total Score, Median: −6
[3]; Bifeprunox 30 mg, Week 4
  Change from Baseline in BPRS Total Score, Mean (SD): −8.2 (11.5)
  Change from Baseline in BPRS Total Score, Median: −7
[3]; [6]
  Change from Baseline in BPRS Total Score, Mean (SD): −8.1 (12.3)
  Change from Baseline in BPRS Total Score, Median: −7
  Change from Baseline in BPRS Total Score, Trt Effect (bifeprunox—placebo): −3.2
[3]; Bifeprunox 40 mg, Week 1
  Change from Baseline in BPRS Total Score, Mean (SD): −4.3 (7.1)
  Change from Baseline in BPRS Total Score, Median: −4
[3]; Bifeprunox 40 mg, Week 2
  Change from Baseline in BPRS Total Score, Mean (SD): −5.5 (9.3)
  Change from Baseline in BPRS Total Score, Median: −6
[3]; Bifeprunox 40 mg, Week 3
  Change from Baseline in BPRS Total Score, Mean (SD): −6.3 (10.3)
  Change from Baseline in BPRS Total Score, Median: −6
[3]; Bifeprunox 40 mg, Week 4
  Change from Baseline in BPRS Total Score, Mean (SD): −5.7 (10.9)
  Change from Baseline in BPRS Total Score, Median: −4
[3]; [7]
  Change from Baseline in BPRS Total Score, Mean (SD): −6.5 (11.7)
  Change from Baseline in BPRS Total Score, Median: −5
